Source: the supplement of paper PMC10307832

Experiments:
Experiment in all cases: relative viability (nuclei count vs DMSO), 5 days (fraction); higher = more cells survive
BGJ398 + Navitoclax = compound: CCN1CCN(c2ccc(Nc3cc(N(C)C(=O)Nc4c(Cl)c(OC)cc(OC)c4Cl)ncn3)cc2)CC1 [BGJ398] + CC1(C)CCC(c2ccc(Cl)cc2)=C(CN2CCN(c3ccc(C(=O)NS(=O)(=O)c4ccc(N[C@H](CCN5CCOCC5)CSc5ccccc5)c(S(=O)(=O)C(F)(F)F)c4)cc3)CC2)C1 [Navitoclax] (partner 0.5 µM)
Summary of the method: (§1)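 Medians of duplicate plates are given as relative viability. That measure is the nuclei count in treated wells divided by the count in vehicle wells. Counts were taken on 4× images of lung cancer cell lines in 1536-well plates, 5 days after pin-tool dosing the day after seeding with one drug alone or a fixed anchor-drug dose plus five library-drug doses (not always all listed) in √10 steps.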

BGJ398 + Crizotinib = compound: CCN1CCN(c2ccc(Nc3cc(N(C)C(=O)Nc4c(Cl)c(OC)cc(OC)c4Cl)ncn3)cc2)CC1 [BGJ398] + C[C@@H](Oc1cc(-c2cnn(C3CCNCC3)c2)cnc1N)c1c(Cl)ccc(F)c1Cl [Crizotinib] (partner 1 µM)
Summary of the method: as §1

[1] = compound: C1=CC2=NC=CN=C2C=C1/C=C/3\C(=O)NC(=O)S3 + Cc1cc(Nc2cc(N3CCN(C)CC3)nc(Sc3ccc(NC(=O)C4CC4)cc3)n2)n[nH]1 [Tozasertib] (partner 0.1 µM)
Summary of the method: as §1

BGJ398 + Pemetrexed = compound: CCN1CCN(c2ccc(Nc3cc(N(C)C(=O)Nc4c(Cl)c(OC)cc(OC)c4Cl)ncn3)cc2)CC1 [BGJ398] + Nc1nc2[nH]cc(CCc3ccc(C(=O)N[C@@H](CCC(=O)O)C(=O)O)cc3)c2c(=O)[nH]1 [Pemetrexed] (partner 0.2 µM)
Summary of the method: as §1

| Cell Line | relative viability (BGJ398 + Navitoclax; first compound 0.01 µM) | relative viability (BGJ398 + Navitoclax; first compound 0.1 µM) | relative viability (BGJ398 + Navitoclax; first compound 0.3162 µM) | relative viability (BGJ398 + Navitoclax; first compound 1 µM) | relative viability (BGJ398 + Crizotinib; first compound 0.01 µM) | relative viability (BGJ398 + Crizotinib; first compound 0.1 µM) | relative viability (BGJ398 + Crizotinib; first compound 0.3162 µM) | relative viability (BGJ398 + Crizotinib; first compound 1 µM) | relative viability ([1]; first compound 0.02 µM) | relative viability ([1]; first compound 0.06325 µM) | relative viability ([1]; first compound 0.2 µM) | relative viability ([1]; first compound 0.6325 µM) | relative viability ([1]; first compound 2 µM) | relative viability (BGJ398 + Pemetrexed; first compound 0.01 µM) | relative viability (BGJ398 + Pemetrexed; first compound 0.1 µM) | relative viability (BGJ398 + Pemetrexed; first compound 1 µM) | relative viability (BGJ398 + Navitoclax; first compound 0.03162 µM) | relative viability (BGJ398 + Crizotinib; first compound 0.03162 µM) | relative viability (BGJ398 + Pemetrexed; first compound 0.03162 µM) | relative viability (BGJ398 + Pemetrexed; first compound 0.3162 µM) |
| --- | --- | --- | --- | --- | --- | --- | --- | --- | --- | --- | --- | --- | --- | --- | --- | --- | --- | --- | --- | --- |
| PC-3 [JPC-3] | 0.756 | 0.773 | 0.637 | 0.777 | 1.02 | 1.09 | 0.971 | 0.961 | 0.811 | 0.811 | 0.905 | 0.913 | 0.869 | 1.16 | 0.766 | 0.992 | – | – | – | – |
| BEN | 0.0852 | 0.0576 | 0.0618 | 0.0501 | 0.735 | 0.893 | 0.81 | 0.797 | 0.525 | 0.446 | 0.551 | 0.517 | 0.683 | 0.703 | 0.751 | 0.606 | 0.15 | 0.871 | 0.812 | 0.749 |
| NCI-H1666 | 0.949 | 0.91 | 0.967 | 0.842 | 0.944 | 0.938 | 1.3 | 0.96 | 0.591 | 0.617 | 0.575 | 0.674 | 0.603 | 0.919 | 0.8 | 0.737 | 1.01 | 1.06 | 0.935 | 0.929 |
| LC-2-ad | 0.366 | 0.519 | 0.612 | 0.392 | 0.446 | 0.444 | 0.487 | 0.476 | 0.444 | 0.353 | 0.46 | 0.406 | 0.449 | 0.292 | 0.245 | 0.31 | 0.575 | 0.451 | 0.285 | 0.271 |
| SK-LU-1 | 0.832 | 0.865 | 1.02 | 0.908 | 0.905 | 1.01 | 0.926 | 0.787 | 0.367 | 0.297 | 0.381 | 0.357 | 0.316 | 0.866 | 1.05 | 1.07 | 0.988 | 0.906 | 1 | 0.936 |
| ChaGo-K-1 | 1.06 | 0.76 | 0.69 | 0.444 | 1.09 | 1.21 | 0.991 | 1.05 | 0.243 | 0.215 | 0.248 | 0.232 | 0.239 | 0.261 | 0.242 | 0.281 | 0.913 | 1.18 | 0.249 | 0.269 |
| COR-L 105 | 0.707 | 0.815 | 0.827 | 0.598 | 0.737 | 0.879 | 0.86 | 0.819 | 0.311 | 0.369 | 0.343 | 0.349 | 0.354 | 1.36 | 0.879 | 0.936 | 0.805 | 0.844 | 1.12 | 1.12 |
| NCI-H1975 | 1.11 | 1.12 | 1.19 | 1.05 | 1.03 | 1.1 | 1.07 | 0.948 | 0.804 | 0.917 | 0.759 | 0.712 | 0.708 | 0.274 | 0.301 | 0.298 | 1.09 | 0.979 | 0.309 | 0.291 |
| NCI-H1993 | 1.02 | 0.909 | 1.02 | 0.882 | 0.866 | 0.912 | 0.959 | 0.922 | 0.545 | 0.593 | 0.612 | 0.543 | 0.436 | 0.559 | 0.575 | 0.549 | 0.836 | 0.794 | 0.543 | 0.572 |
| RERF-LC-KJ | 0.98 | 0.901 | 1.06 | 0.936 | 0.807 | 0.852 | 0.871 | 0.788 | 0.443 | 0.613 | 0.592 | 0.452 | 0.46 | 0.436 | 0.37 | 0.408 | 1.09 | 0.928 | 0.431 | 0.49 |
| NCI-H23 | 0.874 | 0.848 | 0.896 | 0.865 | 0.531 | 0.486 | 0.58 | 0.566 | 0.337 | 0.314 | 0.363 | 0.401 | 0.329 | 0.735 | 0.528 | 0.541 | 0.765 | 0.539 | 0.652 | 0.715 |
| HCC-366 | 1.01 | 0.995 | 1.02 | 1.1 | 0.474 | 0.768 | 0.627 | 0.59 | 0.114 | – | 0.135 | 0.108 | 0.123 | 0.161 | 0.163 | 0.132 | 1.18 | 0.66 | 0.168 | 0.172 |
| EMC-BAC-2 | 1.14 | 1.26 | 1.15 | 1.16 | 0.726 | 0.798 | 0.746 | 0.669 | 0.276 | 0.253 | 0.368 | 0.243 | 0.297 | 0.432 | 0.477 | 0.471 | 1.16 | 0.816 | 0.483 | 0.477 |
| NCI-H2405 | 0.806 | 0.969 | 0.941 | 0.872 | 0.838 | 0.911 | 0.919 | 0.849 | 0.764 | 0.768 | 0.73 | 0.727 | 0.637 | 1.05 | 1.09 | 1.02 | 0.926 | 0.906 | 1.15 | 1.3 |
| NCI-H1944 | 0.986 | 1.08 | 0.884 | 1.05 | 0.994 | 1.13 | 1.09 | 1.19 | 0.254 | 0.206 | 0.261 | 0.239 | 0.238 | 0.652 | 0.502 | 0.606 | 1.05 | 1.07 | 0.635 | 0.495 |
| EPLC-272H | 1.04 | 1.16 | 1.01 | 1.09 | 0.903 | 0.964 | 0.8 | 0.968 | 0.263 | 0.253 | 0.254 | 0.259 | 0.175 | 0.32 | 0.317 | 0.418 | 0.989 | 0.814 | 0.447 | 0.289 |
